Experimental data from patent publication US20260139314A1, “COMPOSITION AND METHOD FOR PREDICTING SULFONYLUREA DEPENDENCY USING GIPR MARKER” (Seoul National University Hospital, priority 2022, published 2026).

Columns and labels:
[1] = test system: INS1 rat insulinoma cells; experiment: Insulin secretion stimulated with low-dose SU (50 nM glimepiride, ELISA); type: cell-based; conditions: non-diabetic conditions; GIPR inhibitor 100 nM, 24 h; 50 nM glimepiride for 30 minutes
Experimental: INS1 rat insulinoma cells were transfected with siGipr and siNS (80 nM) and stimulated for insulin secretion with low-dose SU (50 nM glimepiride for 30 minutes). Insulin secretion was measured using an ELISA kit.
(a) Physiological condition (b) Diabetic condition simulated by pre-treating with 15-mM glucose and 150-μM palmitic acid for 24 hours (glucolipotoxicity).
(§1) INS1 rat insulinoma cells were treated with a GIPR inhibitor (rat GIP(3-30), 100 nM, 24 h) and the inhibition of insulin secretion by GIP was confirmed. Insulin secretion was stimulated with low-dose SU (50 nM glimepiride for 30 minutes) and measured using an ELISA kit.
Next, the SU response was examined based on Gipr suppression. […] However, under diabetic conditions—chronic exposure to high glucose and fatty acids (glucolipotoxicity)—Gipr suppression increased insulin secretion in response to low-dose SU (FIG. 4b).

[2] = test system: INS1 rat insulinoma cells; experiment: GIP-induced insulin secretion (ELISA); type: cell-based; conditions: GIPR inhibitor 100 nM, 24 h
Experimental: INS1 rat insulinoma cells were transfected with 80-nM siRNA for Gipr and negative control.
(c) ELISA: Insulin secretion induced by GIP treatment (50 nM for 1 hour) was attenuated by siGipr. • siGipr, siRNA for Gipr; siNS, siRNA for negative control; siRNA, small interfering RNA; NS, no significant difference
as §1
Experiments were conducted to suppress the expression of the rat Gipr gene, which shares the same gene sequence as human GIPR.

## rat GIP(3-30)
[1]
  Insulin secretion by SU: trend of enhanced insulin secretion
[2]
  Inhibition of insulin secretion by GIP: confirmed
